Data reported in a melting point compilation (Tetko et al.; mined from patent text by program, amines drawn as free bases though some values may be those of a salt).

| SMILES | melting point [°C] |
| --- | --- |
| COC(=O)c1cc2cc(OC)c(OC)cc2c(-c2ccnc(-n3c(=O)cc(C(=O)N4CCOCC4)c4ccccc43)c2)c1C(=O)OC | 247 to 249 |
| CC(C)(C)NC(=O)C(=O)C(C)(C)C | 65 |
| CC(=O)N1CCC(c2nn(-c3ccccc3)c3cc(F)ccc23)CC1 | 126 to 128 |
| O=C(O)CCCc1ccc(C(=O)C=Cc2ccccc2)cc1 | 111 to 112 |
| COc1ccc(-c2nn(Cc3ccccc3)c(=O)cc2-c2ccncc2)cc1 | 154 to 155 |
| CN(C)C=NS(=O)(=O)c1c2c(O)cccc2nn1C | 118 to 119 |
| O=[N+]([O-])c1ccc(CN2CCNS2(=O)=O)cc1 | 115 to 117 |
| COc1ccc(Br)c(C(=O)N2CCN(S(=O)(=O)c3cccc(F)c3)CC2)c1 | 145 |
| CN(C)C(=O)c1cc(-c2ccccc2)c(=O)n2c1-c1ccccc1C2 | 207 to 209 |
| COc1ccc(-n2c(CC(=O)O)c(C(=O)O)c3cc(Oc4cccc(C(F)(F)F)c4)ccc32)cc1 | 210 |
| CCSc1ccc2cccc(CCNC(C)=O)c2c1 | 65 to 66 |
| COCCN(C)Cc1cc(C(=O)Nc2nc3c(OC)ccc(C4COCCOC4)c3s2)ccn1 | 100 to 107 |
| O=C(CC1c2ccccc2C(=O)N1C1CCCCC1)N1CCCCC1 (stereo unspecified) | 158 to 160 |
| O=C(Nc1cccc(F)c1)c1cccc(Oc2cccc(C(F)(F)F)c2)n1 | 74 to 75 |
| N#Cc1c(-c2ccc(Cl)c(Cl)c2)cc(C2CC2)[nH]c1=O | 290 to 295 |
| Cc1c(C#N)c(-c2ccc(C#N)cc2)c(C)n1Cc1ccc(Cl)c(C(O)C(F)(F)F)c1 (stereo unspecified) | 196 to 198 |
| CC(C)COc1c(-c2ccc(S(N)(=O)=O)c(F)c2)cnn(CC(F)(F)F)c1=O | 163 to 164 |
| COC(=O)C(=O)c1cn(C)c2cc(-c3ccc(C(F)(F)F)cc3)ccc12 | 199 to 200 |
| Oc1ccc(-c2c(Cl)c3cc(O)ccc3n2Cc2ccc(OCCN3CCCC3)cc2)cc1 | 233 to 235 |
| CCOC(=O)c1c(-c2ccccc2)cn2ccccc12 | 101 to 103 |
| Cc1c(CC(=O)NC2CCN(Cc3ccc(Cl)c(Cl)c3)CC2)cnn1-c1ccccc1 | 165 |
| Cc1ccc(OCC(=O)c2cc(C(C)(C)C)c(O)c(C(C)(C)C)c2)c(-n2nc3ccccc3n2)c1 | 155 to 157 |
| CC(OCCCNC(=O)c1coc(-c2ccc(/C(=C\CCCCC(=O)O)c3cccnc3)cc2)n1)C1CCCCC1 (stereo unspecified) | 80 to 85 |
| O=c1c2ccc(Cl)cc2[nH]c2c(O)nn(-c3ccc(O)cc3)c(=O)c12 | 316 to 318 |

| SMILES | melting point [°C] |
| --- | --- |
| CC=CCNc1cc(C(=O)O)cc(S(=O)(=O)Nc2ccc(NC(C)=O)cc2)c1Nc1ccc(NC(C)=O)cc1 | 265 |
| CCOCCOC(=O)C1=C(C)N(COCC)C(C)=C(C(=O)OCCOCC)C1c1cccc([N+](=O)[O-])c1 | 63 to 63.5 |
| COc1cc(NN)c(F)cc1C#N | 155 to 156 |
| CC(C)CCN1C(=O)C(N)C(=O)N(CC23CC4CC(CC(C4)C2)C3)c2ccccc21 (stereo unspecified) | 218 to 219 |
| CC1CC(c2ccc(OCC(=O)O)c(Cl)c2Cl)=CC(=O)C1C (stereo unspecified) | 151 to 153 |
| Cc1c(F)c([N+](=O)[O-])cc([N+](=O)[O-])c1F | 81 to 82 |
| CCc1cccc(CC(=O)O)c1OCCCc1cn(-c2ccc(C(F)(F)F)cn2)nc1C(C)C | 155 to 156 |
| CC(C)(C)c1cc(CC2SCNC2=O)ccc1O (stereo unspecified) | 65 to 70 |
| CSCC(=O)c1cc(C(C)(C)C)c(O)c(C(C)(C)C)c1 | 108 to 110 |
| CCOC(=O)c1cn(-c2ccc(F)cc2F)c2nc(OS(=O)(=O)c3ccccc3[N+](=O)[O-])c(F)cc2c1=O | 157 to 160 |
| COC(=O)CNc1cccc(Br)c1 | 66 to 68 |
| COc1cc(C)c2c(c1)C(C(=O)O)=CCC2 | 149 to 150 |
| CNCc1cccc(COc2nc(Cl)cnc2NS(=O)(=O)c2cccc(Cl)c2Cl)c1 | 167 to 168 |
| CC(=O)N[C@H]1CC[C@H](CCC(=O)O)CC1 | 193 to 196 |
| O=C(Cc1ccccc1N1CCCC1)N1C[C@@H]2[C@H](F)CCC(c3ccccc3)(c3ccccc3)[C@@H]2C1 | 170 |
| CC(C)(C)c1ocnc1C=C(O)C(=O)N[C@@H](Cc1ccccc1)C(N)=O | 50 to 53 |
| CSc1ccc2[nH]c(=O)n(CCN3CCC(Nc4nc5ccccc5n4Cc4ccc(F)cc4)CC3)c(=O)c2c1 | 238 |
| CON1CCC2(CC1)NC(=O)NC2=O | 230 to 234 |
| COc1cccc2c(=O)n(-c3ccc(Br)cc3)c(-c3cc(C)c(OCCO)c(C)c3)nc12 | 100 to 102 |
| CN1Sc2sccc2C=C1CN1CCOCC1 | 104 to 106 |
| CCOC(=O)c1cccn2cc(C(Cl)Cl)nc12 | 108 to 110 |
| COc1cccc(S(=O)(=O)Nc2nccnc2OC)c1Cl | 151 to 152 |
| CC(=O)N(C)c1ccc2sc3ccc(Br)cc3c(=O)c2c1 | 240 to 241 |
| C/C(=C(\C#N)C(=S)/N=C/N(C)C)N1CCCN(c2ccc(C#N)cc2)CC1 | 120 to 126 |

| SMILES | melting point [°C] |
| --- | --- |
| CCC(CC)Nc1cc(COC(C)=O)c([N+](=O)[O-])cc1[N+](=O)[O-] | 46 to 52 |
| COC(=O)c1ccccc1S(=O)(=O)NC(=O)N1NC(=O)N(O)C1OC (stereo unspecified) | 180 |
| Cc1noc(NS(=O)(=O)c2ccccc2-c2ccc(-c3ncco3)cc2Cc2ncc(-c3ccccc3)o2)c1C | 120 to 128 |
| NC(=O)CC[C@H]1CC[C@@H](c2ccc(F)cc2)N1S(=O)(=O)c1ccc(Cl)cc1 (racemic) | 114 |
| O=C1CC(c2cccc(-c3nc(CO)co3)c2)=Nc2ccc(-n3cccc3)cc2N1 | 240 to 242 |
| CCC1c2cc(F)ccc2-c2cc(-c3ccccc3)ccc2N1S(=O)(=O)c1ccc(O)cc1 (stereo unspecified) | 207 |
| CCOC(=O)c1cnc2c(OC)csc2c1Nc1ccccc1C | 141 to 143 |
| CC(=O)Nc1cccc(OCCCN2CCC(c3noc4cc(F)ccc34)CC2)c1 | 184 to 186 |
| O=C1c2ccccc2C(=O)c2c1nc1c(Cl)cccn21 | > 300 |
| CC(=O)Nc1ccc(CBr)c(C)c1C#N | 152 to 153 |
| C#Cc1cc(Nc2ncnc3cnc(F)cc23)ccc1F | 223 to 226 |
| CN(CCC(=O)O)c1ccccc1CNC(=O)C1Cc2ccccc2N1S(=O)(=O)c1ccc(-c2ccc(F)cc2Cl)cc1 (stereo unspecified) | 75 to 83 |
| O=C(Nc1ccccc1Br)OCc1cn(-c2cc3cc(C(=O)O)c(=O)[nH]c3cc2C(F)(F)F)cn1 | 145 to 147 |
| CC(=O)Oc1ccccc1C(=O)Nc1cccc(F)c1 | 88.5 to 89.7 |
| CCOC(=O)c1cc(-c2cccc(C(F)(F)F)c2)c(OCCO)c(-c2cccc(C(F)(F)F)c2)c1 | 154 to 158 |
| N#Cc1cccc(S)c1 | 91 to 95 |
| C[C@H](O)CN1CCN(c2ccc(Nc3ncc4ccc(-c5ccccc5N(C)S(C)(=O)=O)n4n3)cc2F)CC1 | 165 |
| CC(SCc1nccc2ccccc12)C(=O)O (stereo unspecified) | 153 to 156 |
| Cc1cc(C#N)cc(C(=O)c2c(C(C)C)c(=O)[nH]c(=O)n2C(C)C)c1 | 278 to 280 |
| O=C(c1ccc(Br)cc1)c1ccc2cc[nH]c2c1 | 47 to 49 |
| CNS(=O)(=O)c1ccc(Nc2cc(N3CCCC3)cc(-c3ccc(OC(F)(F)F)cc3)n2)cc1 | 83 to 85 |
| COC(=O)C(Cc1ccccc1)Oc1ccc2cc(CNC(=O)c3ccc(C4CCCCC4)cc3)ccc2c1Br (stereo unspecified) | 160 to 161 |
| C=Cc1c(N)nc(-c2ccc(Cl)c(OC)c2F)nc1C(=O)OC | 145 to 147 |
| COC(=O)c1nn(Cc2ccccc2)c2c1CCc1cc(OCc3ccccc3)ccc1-2 | 168 to 169 |

| SMILES | melting point [°C] |
| --- | --- |
| O=[N+]([O-])c1c(Cl)nc2c(c1Cl)CCCC2 | 63 to 64 |
| COc1cccc(C(=O)Nc2ccc(N3CCN(Cc4cccc(C#N)c4)CC3)cc2)c1-c1ccc(C(C)C)cc1 | 179 |
| CCCCOc1c(CNC(=O)OC(C)(C)C)n(CC(C)C)c(=O)c2ccc(/C=C/C(=O)O)cc12 | 207 to 209 |
| COc1ccc2cc(C=NNC(N)=O)ccc2c1 | 218 to 219 |
| CCS(=O)(=O)c1ccccc1S(N)(=O)=O | 179 to 181 |
| Cc1nc(Cl)c(S(C)(=O)=O)c(Cl)n1 | 146 to 147 |
| CC(=O)c1c(-c2ccncc2)[nH]c(-c2ccccc2)c1C | 208 to 209 |
| Cn1cnc2c3cccnc3n(-c3ccccc3)c(=O)c21 | > 300 |
| CC(C)N(C=Nc1ccncc1O)C(C)C | 77 to 79 |
| O=c1[nH]c2ncccc2c(=O)n1CCCCCCn1c(=O)[nH]c2ncccc2c1=O | 324 to 328 |
| Oc1ccc(-c2c3ccccc3c(Br)c3sc4ccccc4c23)cc1O | 181 to 182 |
| CCNC(=NS(=O)(=O)c1cccc(Cl)c1)N1CC(C)(C)C=N1 | 62 to 67 |
| Cc1ccc2sc(-c3ccccn3)nc(=O)c2c1 | 220 to 221 |
| CN(c1ccccc1)c1nc(Cl)nc(N2CCOCC2)n1 | 93.5 to 95.5 |
| Cc1ccc(C(O)(c2ccc(C)cc2)C2CCN(CCCC(O)c3ccc(C(C)(C)C(=O)O)cc3)CC2)cc1 (stereo unspecified) | 208 to 215 |
| CCN(CC)c1ccc(-c2cc(-c3ccc(C(=O)O)cc3)ccc2OCCCO)cc1C | 208 |
| CC(C)(Cc1cc(F)cc(F)c1)NCC(O)c1cc(OCc2ccccc2)cc2c1OCC(=O)N2 (stereo unspecified) | 150 to 158 |
| Cc1ccc(N2N=C3c4ccncc4CCC3CC2=O)cc1 (stereo unspecified) | 152 to 153 |
| CCOC(=O)c1c(CN(CC)CC)nc2sc3c(c2c1-c1ccc(OC)c(OC)c1)CCCN3C(=O)OCc1ccccc1 | 138 to 139 |
| CN(CCO)C(c1ccc(Cl)cc1)c1ccc(Cl)cc1 | 49 to 50 |
| COC(=O)C1Oc2ccc(C)cc2C(C)(c2ccccc2)O1 (stereo unspecified) | 100 |
| OCCCOc1cccc2sccc12 | 82 |
| COC(=O)Cc1ccc(OCCNC(=O)[C@@H]2Cc3ccccc3N2S(=O)(=O)c2ccc(OC(C)(C)C)cc2)cc1 | 45 to 48 |
| C=CC1CN(c2ncc(C(=O)N(C)c3cccc(C(F)(F)F)c3)c(N)n2)C(=O)N1 (stereo unspecified) | 203 to 204 |
